Patent US4535090A, “3,5-Diphenyl-1H-1,2,4-triazoles pharmaceutical compositions and uses” (Gruppo Lepetit S.p.A., priority 1981, dated 1985)

What follows are compounds tested on pregnancy in female Sprague Dawley rats (assay: Pregnancy termination activity in rats after a single subcutaneous injection at day 7 of gestation). Details: rat, single s.c. injection, dissolved in sesame oil containing 20% benzyl benzoate (or suspended if insoluble), autopsy day 16.
Format: in vivo, rat (Sprague Dawley)
Procedure: In particular, female Sprague Dawley rats weighing 200-230 g were mated and the presence of sperm in the vagina was taken as evidence of mating. The day the sperm was detected, was considered day one of pregnancy. Pregnancy was later confirmed at the time of autopsy by the presence of implantation sites in the uterus.
Test compounds dissolved in sesame oil containing 20% benzyl benzoate (or suspended if insoluble), were administered subcutaneously, in a single injection, on day 7 of gestation. The animals were then autopsied on day 16 of pregnancy and the uteri were examined for evidence of pregnancy (implantation sites, fetal resorption or live fetuses), hemorrage, and evidence of abnormalities of the uterus, placenta or fetuses.
In the case of “1-acetyl-3(5)-(2-decanoyloxymethylphenyl)-5(3)-(3,4-dimethoxyphenyl)-1H-1,2,4-triazole [Example 10]”, the “ED50 (dose terminating pregnancy, absence of live fetuses, in 50% of the treated animals)” value is reported as 4 mg/kg.
In the case of “1-hexanoyl-3(5)-(2-hexanoyloxymethylphenyl)-5(3)-(3-methoxyphenyl)-1H-1,2,4-triazole [Example 11]”, the “ED50 (dose terminating pregnancy, absence of live fetuses, in 50% of the treated animals)” value is reported as 8 mg/kg.

Same assay, conditions: sc, rat, single s.c. injection, dissolved in sesame oil containing 20% benzyl benzoate (or suspended if insoluble), autopsy day 16, read-out: ED50 (dose terminating pregnancy, absence of live fetuses, in 50% of the treated animals)
For `COc1cccc(-c2n[nH]c(-c3ccccc3COC(C)=O)n2)c1` [5-(2-Acetyloxymethylphenyl)-3-(3-methoxyphenyl)-1H--1,2,4-triazole, reference compound], the ED50 was 50 mg/kg.
Compound `CCCCCCCC(=O)OCc1ccccc1-c1nc(-c2cccc(OC)c2)n[nH]1` [Example 1, 3-(3-methoxyphenyl)-5-(2-octanoyloxymethylphenyl)-1H-1,2,4-triazole] has an ED50 of 13 mg/kg.
`CCCCCCCCCCCC(=O)OCc1ccccc1-c1nc(-c2cccc(OC)c2)n[nH]1` [Example 2, 5-(2-dodecanoyloxymethylphenyl)-3-(3-methoxyphenyl)-1H-1,2,4-triazole] was tested, and the ED50 was 2 mg/kg.
`CCCCCCCC(=O)OCc1ccccc1-c1nc(-c2cccc(OCC)c2)n[nH]1` [Example 3, 3-(3-ethoxyphenyl)-5-(2-octanoyloxymethylphenyl)-1H-1,2,4-triazole] gave an ED50 of 4 mg/kg.
Work on `CCCCCCCCCC(=O)OCc1ccccc1-c1nc(-c2cccc(OC)c2)n[nH]1` [Example 4, 5-(2-decanoyloxymethylphenyl)-3-(3-methoxyphenyl)-1H-1,2,4-triazole] yielded an ED50 of 2 mg/kg.
For `CCCCCCCCCCCC(=O)OCc1ccccc1-c1nc(-c2ccc(OC)c(OC)c2)n[nH]1` [Example 6, 5-(2-dodecanoyloxymethylphenyl)-3-(3,4-dimethoxyphenyl)-1H-1,2,4-triazole], the ED50 was 2 mg/kg.
Compound `CCCCCCCCCC(=O)OCc1ccccc1-c1nc(-c2cccc(OCC)c2)n[nH]1` [Example 7] has an ED50 of 2 mg/kg.
`CCCCCCCCCC(=O)OCc1ccccc1-c1nc(-c2ccc(OC)c(OC)c2)n[nH]1` [Example 8, 5-(2-decanoyloxymethylphenyl)-3-(3,4-dimethoxyphenyl)-1H-1,2,4-triazole] was tested, and the ED50 was 10 mg/kg.
`CCCCCC(=O)OCc1ccccc1-c1nc(-c2cccc(OCC)c2)n[nH]1` [Example 9, 3-(3-ethoxyphenyl)-5-(2-hexanoyloxymethylphenyl)-1H-1,2,4-triazole] was tested, and the ED50 was 7 mg/kg.

Same assay, conditions: sc, rat, single s.c. injection, given suspended instead of dissolved, autopsy day 16, read-out: ED50 (dose terminating pregnancy, absence of live fetuses, in 50% of the treated animals)
Compound `COc1cccc(-c2n[nH]c(-c3ccccc3CO)n2)c1` [5-(2-Hydroxymethylphenyl)-3-(3-methoxyphenyl)-1H--1,2,4-triazole, reference compound] has an ED50 of 40 mg/kg.
